For orientation: EC50 means the concentration giving half of the maximal effect. Read a low EC50 as an effect from little substance.

These results are taken from patent publication US20180362543A1, “HIV REPLICATION INHIBITOR” (Shionogi & Co., Ltd., priority 2013, published 2018).

One assay deals with HIV (HTLV-III B strain). In words: HIV replication inhibition assay (MTT, MT-4 cells). The format is cell-based. The note with it: Human immunodeficiency virus 1, MT4, 96 h, Table A-3, four days. The protocol:
HIV (HTLV-III B strain) persistent infected human T cell strain Molt-4 clone 8 was cultured in 10% Fetal Bovine Serum-containing RPMI-1640 medium and the supernatant was filtrated, then the virus titer was measured and the solution was stored at −80° C. Each anti-human immunodeficiency virus active substance was diluted with the above cultured medium to the designated concentration, which was dispensed into 96 well micro plate by 50 μL. Next, a MT-4 cell suspended liquid was dispensed by 100 μL (2.5×10^4 cells), then the above HIV-containing supernatant diluted with the above cultured medium was added thereto by 50 μL (60 pfu (plaque forming unit)).
The obtained mixture was cultured at 37° C. in CO2 incubator for four days, then 3-(4,5-dimehylthiazole-2-yl)-2,5-diphenyltetrazolynium bromide (MTT) 5 mg/mL in PBS was added to each well by 30 μL, followed by 1 hr-cultivation. In this step, as formazan was precipitated by reduction of MTT in living cells, the cell supernatant was removed from all well by 150 μL, then a 150 μL of solution (10% Triton X-100 and […]) was added thereto, followed by shaking with a plate mixer, to elute formazan. The formazan was measured with a microreader at OD: 560 nm and 690 nm (wavelength) and the result was compared with the reference. EC50 means the compound concentration at which cell cytotoxicity by virus is inhibited 50%.
With `Cc1ccc(-c2c(C)c3c(c(C)c2[C@H](OC(C)(C)C)C(=O)O)NC(=O)C2(CCC(F)(F)CC2)N3)cc1` [Compound 157], the midpoint of the response, the EC50, lay at 4.3 nM.

The compound `Cc1ccc(-c2c(C)c3c(c(C)c2[C@H](OC(C)(C)C)C(=O)O)N(S(C)(=O)=O)Cc2cc(C(F)(F)F)ccc2-3)cc1` [Compound 159] registered an EC50 of 5.3 nM.

For the compound `Cc1ccc(-c2c(C)c3c(c(C)c2[C@H](OC(C)(C)C)C(=O)O)N(S(C)(=O)=O)Cc2ccc(F)cc2-3)cc1` [Compound 161], the EC50 stood at 21 nM.

Turning to `COc1cc(C)c2c(c1)CN(S(C)(=O)=O)c1c(C)c([C@H](OC(C)(C)C)C(=O)O)c(-c3ccc(C)cc3)c(C)c1-2` [Compound 162], the midpoint of the response, the EC50, lay at 13 nM.

Regarding `Cc1ccc(-c2c(C)c3c(c(C)c2[C@H](OC(C)(C)C)C(=O)O)N(S(C)(=O)=O)Cc2c(F)cccc2-3)cc1` [Compound 163], a half-maximal response (EC50) required 15 nM.

On to `Cc1ccc(-c2c(C)c3c(c(C)c2[C@H](OC(C)(C)C)C(=O)O)N(S(C)(=O)=O)Cc2cc(OC(F)(F)F)ccc2-3)cc1` [Compound 164], for which the EC50 worked out at 4.1 nM.

As to `Cc1ccc(-c2c(C)c3c(c(C)c2[C@H](OC(C)(C)C)C(=O)O)N(S(C)(=O)=O)Cc2cc4c(cc2-3)COC4)cc1` [Compound 166], the EC50 was found to be 1.7 nM.

Regarding `Cc1ccc(-c2c(C)c3c(c(C)c2[C@H](OC(C)(C)C)C(=O)O)N(S(C)(=O)=O)Cc2cc(F)ccc2-3)cc1` [Compound 167], the response was half-maximal at 8.5 nM (EC50).

For the compound `COc1ccc2c(c1)-c1c(C)c(-c3ccc(C)cc3)c([C@H](OC(C)(C)C)C(=O)O)c(C)c1N(S(C)(=O)=O)C2` [Compound 168], it took 24 nM to reach a half-maximal effect (EC50).

On to `Cc1ccc(-c2c(C)c3c(c(C)c2[C@H](OC(C)(C)C)C(=O)O)N(S(C)(=O)=O)Cc2cccc(C(F)(F)F)c2-3)cc1` [Compound 169], for which the EC50 turned out to be 9.6 nM.

Regarding `Cc1ccc(-c2c(C)c3c(c(C)c2[C@H](OC(C)(C)C)C(=O)O)NS(=O)(=O)N(c2ccc(F)cc2)CC3)cc1` [Compound 171], a half-maximal response (EC50) required 21 nM.

`Cc1ccc(-c2c(C)c3c(c(C)c2[C@H](OC(C)(C)C)C(=O)O)N(S(C)(=O)=O)Cc2c(F)ccc(C)c2-3)cc1` [Compound 172] gave an EC50 of 42 nM.

`Cc1ccc(-c2c(C)c3c(c(C)c2[C@H](OC(C)(C)C)C(=O)O)N(S(C)(=O)=O)Cc2c-3cccc2C(F)(F)F)cc1` [Compound 173] showed an EC50 of 9.4 nM.

For the compound `COc1ccc2c(c1F)CN(S(C)(=O)=O)c1c(C)c([C@H](OC(C)(C)C)C(=O)O)c(-c3ccc(C)cc3)c(C)c1-2` [Compound 174], the EC50 was determined as 1.5 nM.

For the compound `Cc1ccc(-c2c(C)c3c(c(C)c2[C@H](OC(C)(C)C)C(=O)O)N(S(C)(=O)=O)Cc2cc4c(cc2-3)OCCCO4)cc1` [Compound 175], the EC50 came out at 2.9 nM.

Compound `Cc1ccc(-c2c(C)c3c(c(C)c2[C@H](OC(C)(C)C)C(=O)O)NC(=O)N(Cc2ccc(F)cc2)CC3)cc1` [Compound 177] had an EC50 of 34 nM.

`Cc1ccc(-c2c(C)c3c(c(C)c2[C@H](OC(C)(C)C)C(=O)O)N(S(C)(=O)=O)Cc2cscc2-3)cc1` [Compound 183] gave an EC50 of 21 nM.

`Cc1ccc(-c2c(C)c3c4c(c2C(OC(C)(C)C)C(=O)O)CCCN4S(=O)(=O)N(Cc2ccc(F)cc2)C3)cc1` (stereo not shown) [Compound 184] had an EC50 of 53 nM.

The same assay, now with this note: Human immunodeficiency virus 1, MT4, 96 h, Table A-4, four days.
For `Cc1ccc(-c2c(C)c3c(c(C)c2[C@H](OC(C)(C)C)C(=O)O)N(S(C)(=O)=O)Cc2c(C)cccc2-3)cc1` [Compound 208], a half-maximal response (EC50) required 15 nM.

In turn, `Cc1ccc(-c2c(C)c3c(c(C)c2[C@H](OC(C)(C)C)C(=O)O)N(S(C)(=O)=O)Cc2ccncc2-3)cc1` [Compound 210] registered an EC50 of 38 nM.

Consider `Cc1ccc(-c2c(C)c3c(c(C)c2[C@H](OC(C)(C)C)C(=O)O)N(S(C)(=O)=O)Cc2cc(F)cc(F)c2-3)cc1` [Compound 212], for which the EC50 turned out to be 1.9 nM.

On to `COc1cc2c(cn1)-c1c(C)c(-c3ccc(C)cc3)c([C@H](OC(C)(C)C)C(=O)O)c(C)c1N(S(C)(=O)=O)C2` [Compound 214], for which the half-maximal effective concentration (EC50) is 4.9 nM.

The compound `Cc1ccc(-c2c([C@H](OC(C)(C)C)C(=O)O)c(C)c3nc(O)c4ccc(C(F)(F)F)nc4c3c2C)cc1` [Compound 216] returned an EC50 of 46 nM.

Turning to `Cc1ccc(-c2c([C@H](OC(C)(C)C)C(=O)O)c(C)c3nc(O)c4ccc(C)nc4c3c2C)cc1` [Compound 217], the EC50 stood at 41 nM.

Turning to `Cc1c(-c2c([C@H](OC(C)(C)C)C(=O)O)c(C)c3nc(O)c4cc(F)cnc4c3c2C)ccc2c1CCCO2` [Compound 218], the EC50 amounted to 6.4 nM.

`Cc1ccc(-c2c(C)c3c(c(C)c2[C@H](OC(C)(C)C)C(=O)O)N(S(C)(=O)=O)Cc2ccc(F)c(F)c2-3)cc1` [Compound 220] registered an EC50 of 7.3 nM.

Regarding `Cc1ccc(-c2c([C@H](OC(C)(C)C)C(=O)O)c(C)c3nc(O)c4c(c3c2C)CCCN4)cc1` [Compound 221], the EC50 turned out to be 90 nM.

The compound `COc1ccc2c(c1)c(O)nc1c(C)c([C@H](OC(C)(C)C)C(=O)O)c(-c3ccc(C)cc3)c(C)c12` [Compound 223] came in with an EC50 of 34 nM.

`Cc1c(-c2c(C)c3c(c(C)c2[C@H](OC(C)(C)C)C(=O)O)N(S(C)(=O)=O)Cc2cccc(F)c2-3)ccc2c1CCCO2` [Compound 224] came in with a concentration for a half-maximal effect (EC50) of 2.5 nM.

Consider `COc1ccc2c(O)nc3c(C)c([C@H](OC(C)(C)C)C(=O)O)c(-c4ccc(C)cc4)c(C)c3c2c1` [Compound 226], for which the EC50 was determined as 58 nM.

The compound `Cc1ccc(-c2c(C)c3c(c(C)c2[C@H](OC(C)(C)C)C(=O)O)N(S(C)(=O)=O)Cc2c(F)cc(F)cc2-3)cc1` [Compound 228] gave an EC50 of 19 nM.

On to `Cc1ccc(-c2c([C@H](OC(C)(C)C)C(=O)O)c(C)c3nc(O)c4ccc(F)cc4c3c2C)cc1` [Compound 230], for which the EC50 came to 94 nM.

On to `Cc1ccc(-c2c([C@H](OC(C)(C)C)C(=O)O)c(C)c3nc(O)c4cc(F)c(F)cc4c3c2C)cc1` [Compound 231], for which it took 78 nM to reach a half-maximal effect (EC50).

As to `Cc1ccc(-c2c([C@H](OC(C)(C)C)C(=O)O)c(C)c3nc(O)c4cc5c(cc4c3c2C)OCCO5)cc1` [Compound 232], the EC50 came out at 12 nM.

The compound `Cc1ccc(-c2c([C@H](OC(C)(C)C)C(=O)O)c(C)c3nc(O)c4cc5ccccc5nc4c3c2C)cc1` [Compound 233] gave an EC50 of 38 nM.

As to `Cc1c(-c2c(C)c3c(c(C)c2[C@H](OC(C)(C)C)C(=O)O)N(S(C)(=O)=O)Cc2cccc(F)c2-3)ccc2c1NCCO2` [Compound 235], the EC50 stood at 5.4 nM.

Take `Cc1c(-c2c([C@H](OC(C)(C)C)C(=O)O)c(C)c3nc(O)c4cc(F)cnc4c3c2C)ccc2c1NCCO2` [Compound 237]: the EC50 stood at 12 nM.

Compound `Cc1c([C@H](OC(C)(C)C)C(=O)O)c(-c2ccc(Cl)cc2)c(C)c2c1nc(O)c1cc(F)cnc12` [Compound 238] had an EC50 of 31 nM.

In turn, `Cc1ccc(-c2c([C@H](OC(C)(C)C)C(=O)O)c(C)c3ncc4cc(F)cnc4c3c2C)cc1` [Compound 239] had an EC50 of 81 nM.

Consider `Cc1ccc(-c2c([C@H](OC(C)(C)C)C(=O)O)c(C)c3nc(N)c4cc(F)cnc4c3c2C)cc1` [Compound 245], for which the EC50 came out at 15 nM.

Turning to `Cc1c(-c2c(C)c3c(c(C)c2[C@H](OC(C)(C)C)C(=O)O)N(S(C)(=O)=O)Cc2c(F)ccc(F)c2-3)ccc2c1CCCO2` [Compound 246], a half-maximal response (EC50) required 2.3 nM.

Staying with this assay, now noted: Human immunodeficiency virus 1, MT4, 96 h, Table A-5, four days.
For the compound `Cc1ccc(-c2c(C)c3c(c(C)c2[C@H](OC(C)(C)C)C(=O)O)N(S(C)(=O)=O)Cc2nc(C)ccc2-3)cc1` [Compound 248], the EC50 amounted to 11 nM.

Regarding `Cc1c(-c2c(C)c3c(c(C)c2[C@H](OC(C)(C)C)C(=O)O)N(S(C)(=O)=O)Cc2c(F)ccc(F)c2-3)ccc2c1NCCO2` [Compound 249], the EC50 turned out to be 5.8 nM.

Consider `Cc1ccc2c(c1F)CN(S(C)(=O)=O)c1c(C)c([C@H](OC(C)(C)C)C(=O)O)c(-c3ccc4c(c3C)CCCO4)c(C)c1-2` [Compound 251], for which it took 2.1 nM to reach a half-maximal effect (EC50).

Consider `Cc1ccc2c(c1F)CN(S(C)(=O)=O)c1c(C)c([C@H](OC(C)(C)C)C(=O)O)c(-c3ccc4c(c3C)NCCO4)c(C)c1-2` [Compound 254], for which the EC50 was found to be 3.1 nM.

Regarding `Cc1c(C2=CCC(C)(C)CC2)c([C@H](OC(C)(C)C)C(=O)O)c(C)c2c1-c1c(F)cccc1CN2S(C)(=O)=O` [Compound 258], the EC50 was found to be 3.9 nM.

`Cc1c(-c2ccc3c(c2)C(F)(F)CCO3)c([C@H](OC(C)(C)C)C(=O)O)c(C)c2c1-c1c(F)cccc1CN2S(C)(=O)=O` [Compound 259] displayed an EC50 of 27 nM.

Regarding `Cc1c(-c2ccc3c(c2)NCCO3)c([C@H](OC(C)(C)C)C(=O)O)c(C)c2c1-c1c(F)cccc1CN2S(C)(=O)=O` [Compound 260], the midpoint of the response, the EC50, lay at 14 nM.

On to `Cc1c(-c2ccc3c4c(ccnc24)CCO3)c([C@H](OC(C)(C)C)C(=O)O)c(C)c2c1-c1c(F)cccc1CN2S(C)(=O)=O` [Compound 262], for which a half-maximal response (EC50) required 25 nM.

Take `COc1ccc(-c2c(C)c3c(c(C)c2[C@H](OC(C)(C)C)C(=O)O)N(S(C)(=O)=O)Cc2cccc(F)c2-3)cc1` [Compound 263]: the EC50 was 12 nM.

Regarding `Cc1c(-c2ccc(F)cc2)c([C@H](OC(C)(C)C)C(=O)O)c(C)c2c1-c1c(F)cccc1CN2S(C)(=O)=O` [Compound 264], the EC50 came to 19 nM.

The compound `Cc1c(-c2ccc(Cl)cc2)c([C@H](OC(C)(C)C)C(=O)O)c(C)c2c1-c1c(F)cccc1CN2S(C)(=O)=O` [Compound 265] displayed an EC50 of 11 nM.
